According to the supplement of paper PMC11451515:

System: P12-Ichikawa
Experiment: cell viability relative to DMSO control; higher = less cytotoxic
Details: 48 h
Procedure, shortened: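 In 1536-well plates, 5 μl of leukemia cells were seeded per well: 500 cells/well for NOMO1 or SEM and 1000 cells/well for P12-Ichikawa. Each line had first been adapted for at least four passages in each medium. Library compounds in DMSO were pin-dosed at 11 threefold concentrations between 47 μM and 0.79 nM, and CellTiter-Glo One luminescence was read after 48 h at 37°C. Viability is a per-plate percentage relative to DMSO wells, with cell-free wells as background.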

[1] = HPLM + 10% dialyzed FBS, 0.000781 µM
[2] = HPLM + 10% dialyzed FBS, 0.00234 µM
[3] = HPLM + 10% dialyzed FBS, 0.00702 µM
[4] = HPLM + 10% dialyzed FBS, 0.0211 µM
[5] = HPLM + 10% dialyzed FBS, 0.0632 µM
[6] = HPLM + 10% dialyzed FBS, 0.19 µM
[7] = HPLM + 10% dialyzed FBS, 0.569 µM
[8] = HPLM + 10% dialyzed FBS, 1.71 µM
[9] = HPLM + 10% dialyzed FBS, 5.12 µM
[10] = HPLM + 10% dialyzed FBS, 15.4 µM
[11] = HPLM + 10% dialyzed FBS, 46.1 µM
[12] = RPMI 5 mM glucose + 10% FBS, 0.000781 µM
[13] = RPMI 5 mM glucose + 10% FBS, 0.00234 µM
[14] = RPMI 5 mM glucose + 10% FBS, 0.00702 µM
[15] = RPMI 5 mM glucose + 10% FBS, 0.0211 µM
[16] = RPMI 5 mM glucose + 10% FBS, 0.0632 µM
[17] = RPMI 5 mM glucose + 10% FBS, 0.19 µM
[18] = RPMI 5 mM glucose + 10% FBS, 0.569 µM
[19] = RPMI 5 mM glucose + 10% FBS, 1.71 µM
[20] = RPMI 5 mM glucose + 10% FBS, 5.12 µM
[21] = RPMI 5 mM glucose + 10% FBS, 15.4 µM
[22] = RPMI 5 mM glucose + 10% FBS, 46.1 µM
[23] = RPMI 5 mM glucose + 10% dialyzed FBS, 0.000781 µM
[24] = RPMI 5 mM glucose + 10% dialyzed FBS, 0.00234 µM
[25] = RPMI 5 mM glucose + 10% dialyzed FBS, 0.00702 µM
[26] = RPMI 5 mM glucose + 10% dialyzed FBS, 0.0211 µM
[27] = RPMI 5 mM glucose + 10% dialyzed FBS, 0.0632 µM
[28] = RPMI 5 mM glucose + 10% dialyzed FBS, 0.19 µM
[29] = RPMI 5 mM glucose + 10% dialyzed FBS, 0.569 µM
[30] = RPMI 5 mM glucose + 10% dialyzed FBS, 1.71 µM
[31] = RPMI 5 mM glucose + 10% dialyzed FBS, 5.12 µM
[32] = RPMI 5 mM glucose + 10% dialyzed FBS, 15.4 µM
[33] = RPMI 5 mM glucose + 10% dialyzed FBS, 46.1 µM

SMILES	cell viability [1] [%]	cell viability [2] [%]	cell viability [3] [%]	cell viability [4] [%]	cell viability [5] [%]	cell viability [6] [%]	cell viability [7] [%]	cell viability [8] [%]	cell viability [9] [%]	cell viability [10] [%]	cell viability [11] [%]	cell viability [12] [%]	cell viability [13] [%]	cell viability [14] [%]	cell viability [15] [%]	cell viability [16] [%]	cell viability [17] [%]	cell viability [18] [%]	cell viability [19] [%]	cell viability [20] [%]	cell viability [21] [%]	cell viability [22] [%]	cell viability [23] [%]	cell viability [24] [%]	cell viability [25] [%]	cell viability [26] [%]	cell viability [27] [%]	cell viability [28] [%]	cell viability [29] [%]	cell viability [30] [%]	cell viability [31] [%]	cell viability [32] [%]	cell viability [33] [%]
Cc1ncc(OC[C@@]2(c3cccc(F)c3)C[C@H]2C(=O)Nc2ccc(F)cn2)c(C)n1	104	101	104	104	105	111	114	102	102	103	13.4	107	107	108	112	110	106	106	107	107	106	97.3	111	108	119	113	108	121	116	115	117	106	96.2
OC[C@H]1O[C@H]([C@@H](F)[C@@H]1O)N2\C=C/C(=O)NC2=O	110	108	108	110	108	112	114	102	99.6	98	94.1	99	108	108	91.6	97.9	114	106	102	92.1	102	106	109	93.5	104	100	99.4	97	105	96	93.6	93.5	88.6
CCN(CC)C(=S)SSC(=S)N(CC)CC	104	106	118	120	117	109	119	122	4.64	10.4	9.15	103	98.6	112	122	119	115	115	116	4.29	5.91	4.43	104	105	116	115	115	112	108	115	4	3.98	3.13
CC(C)(C)C(=O)OCOP(=O)(COCCn1cnc2c(N)ncnc21)OCOC(=O)C(C)(C)C	97.4	110	103	103	73.1	73.5	70.2	50.1	27.4	19	29.2	94.7	104	92.3	94.6	69.5	72.9	52.6	29.9	15	10.7	19.6	89.3	96.3	94.7	86.4	82.1	65	61.6	46.7	28.8	28.8	27.4
C[C@H]1C[C@H]2[C@@H]3CCC4=CC(=O)C=C[C@]4(C)[C@@]3(F)[C@@H](O)C[C@]2(C)[C@@]1(O)C(=O)CO	114	119	118	109	98.1	78.3	73.9	71.9	71	65.5	65.8	121	126	116	108	99.8	73.1	65.1	60.1	51.7	55.6	43.5	110	119	116	101	81.1	59.9	56	48.2	46	41.5	42.5
NC(=O)c1ncn([C@@H]2O[C@H](CO)[C@@H](O)[C@H]2O)n1	122	120	102	109	110	118	116	111	96.3	82	76.1	116	121	115	123	122	103	112	104	88.3	79.4	62.8	115	107	123	115	120	100	106	105	82.4	69.3	62.5
O=C1\C=C/C[C@@H]2[C@H]3CCCN4CCC[C@@H](CN12)[C@@H]34	98.2	103	107	101	108	99.2	98.1	104	98.9	99.1	89.6	103	116	109	101	98.5	94.8	98.5	85.7	93.5	96.8	89.7	102	98.5	97.8	105	98.4	94	105	95.7	100	94.3	86.8
CC(=O)NC(CS)C(=O)O (centres undefined)	81.9	82.9	88.7	88.4	91.3	86.4	89.3	87.2	87.3	18.4	27.5	75.5	74.2	81.5	78.2	81.4	69.5	83.3	80.4	88.8	28.6	62.5	80.4	80.4	76.4	82.7	89.7	79	84.4	88.8	77.2	27.8	45.6
